Consider 14 molecules from ChEMBL document CHEMBL1770073, “Synthesis of cinnamoyl ketoamides as hybrid structures of antioxidants and calpain inhibitors” (Bioorg Med Chem Lett, 2011).

One test concerns Liver. The test can be described thus: Antioxidant activity in rat liver homogenates assessed as inhibition of lipid peroxidation by measuring formation of thiobarbituric acid-reactive substance after 30 mins. It is filed as functional, tissue-based. The note with it: 0.5 h.
Test [1] has as its system Radical scavenging activity. The test can be described thus: Antioxidant activity assessed as DPPH free radical scavenging activity after 30 mins. It is filed as functional.
Test [2] concerns the target T1, Calpain-1 catalytic subunit (Homo sapiens, UniProt P07384).
T1 sequence (P07384 whole entry): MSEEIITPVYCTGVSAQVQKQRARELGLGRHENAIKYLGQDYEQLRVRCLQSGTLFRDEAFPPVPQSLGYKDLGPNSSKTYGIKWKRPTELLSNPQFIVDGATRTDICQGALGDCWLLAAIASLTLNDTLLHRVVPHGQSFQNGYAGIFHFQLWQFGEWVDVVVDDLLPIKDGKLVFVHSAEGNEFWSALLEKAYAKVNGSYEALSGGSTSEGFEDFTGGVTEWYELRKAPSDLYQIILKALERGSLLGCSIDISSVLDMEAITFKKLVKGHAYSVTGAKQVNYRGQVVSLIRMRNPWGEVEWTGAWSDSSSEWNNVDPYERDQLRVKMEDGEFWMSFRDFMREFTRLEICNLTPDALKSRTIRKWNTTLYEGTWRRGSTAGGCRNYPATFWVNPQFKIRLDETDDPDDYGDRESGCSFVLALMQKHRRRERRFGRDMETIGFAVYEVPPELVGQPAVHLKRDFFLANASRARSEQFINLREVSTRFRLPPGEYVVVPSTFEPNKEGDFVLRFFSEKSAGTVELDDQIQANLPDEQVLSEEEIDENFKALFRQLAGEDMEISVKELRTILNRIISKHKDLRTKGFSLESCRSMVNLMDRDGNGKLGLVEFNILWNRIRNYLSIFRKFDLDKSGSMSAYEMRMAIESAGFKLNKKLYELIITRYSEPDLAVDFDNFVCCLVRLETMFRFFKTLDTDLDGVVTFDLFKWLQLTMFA
Briefly: Inhibition of human erythrocytes mu-calpain using Suc-Leu-Tyr-AMC fluorogenic substrate after 30 mins by spectrofluorimetry.

Test [3] in a line: Antioxidant activity assessed as xanthine-xanthine oxidase generated superoxide anion scavenging after 20 mins. It is filed as functional.

What is called IC50 is the midpoint of a concentration-inhibition curve. `CCCC/C(=C\c1ccc(O)c(OC)c1)C(=O)N[C@@H](Cc1ccccc1)C(=O)C(=O)NCCc1ccc(OC)cc1` (stereo in doubt): the IC50 is 36.1 µM in the test on Liver, above 100 µM in test [1], 0.63 µM in test [2] and above 100 µM in test [3].

`CCC/C(=C\c1ccc(O)c(O)c1)C(=O)N[C@@H](Cc1ccccc1)C(=O)C(=O)NCCc1ccc(OC)cc1` (stereo in doubt): the IC50 in the test with Liver stood at 5.71 µM; in test [1], 48.6 µM; in test [2], 0.13 µM; in test [3], 38 µM.

Turning to `CCC/C(=C\c1ccc(O)c(O)c1)C(=O)N[C@@H](Cc1ccccc1)C(=O)C(=O)NCc1ccccc1` (stereo in doubt), the 50% inhibitory concentration (IC50) in the test on Liver worked out at 6.15 µM; in test [1], 42.2 µM; in test [2], 0.36 µM; in test [3], 27.1 µM.

Regarding `O=C1O[C@H]([C@@H](O)CO)C(O)=C1O` [ASCORBIC ACID], the concentration for half-maximal inhibition (IC50) with Liver is above 100 µM; in test [1] it was 30.8 µM; in test [3], above 100 µM.

On to `COc1ccc(OC)c(C(=O)CCC(=O)N[C@@H](Cc2ccccc2)C(=O)C(N)=O)c1`, for which the IC50 (in the test on Liver; in test [1]; in test [3]) was above 100 µM each time.

Turning to `CC(C)C/C(=C\c1ccc(O)c(O)c1)C(=O)N[C@@H](Cc1ccccc1)C(=O)C(=O)NCc1ccccc1` (stereo in doubt), the IC50 in the test with Liver came to 6.06 µM; in test [1] it was 44.6 µM; in test [2], 0.32 µM; in test [3], 41.7 µM.

Take `Cc1c(C)c2c(c(C)c1O)CCC(C)(C(=O)O)O2` (stereo unspecified) [TROLOX]: the IC50 in the test with Liver is 71.4 µM.

Consider `Cc1c(C(=O)N[C@@H](Cc2ccccc2)C(=O)C(N)=O)oc2ccccc2c1=O`, for which the IC50 was above 100 µM in the test with Liver, above 100 µM in test [1], 0.07 µM in test [2] and above 100 µM in test [3].

As to `O=C(/C=C/c1ccc(O)c(O)c1)N[C@@H](Cc1ccccc1)C(=O)C(=O)NCc1ccccc1`, the IC50 in the test on Liver was found to be 7.53 µM; in test [1], 40.4 µM; in test [2] it was 6.07 µM; in test [3], 31.2 µM.

Consider `CCCC/C(=C\c1ccc(O)c(O)c1)C(=O)N[C@@H](Cc1ccccc1)C(=O)C(=O)NCc1ccccc1` (stereo in doubt), for which the IC50 was determined as 7.34 µM in the test with Liver, 36.7 µM in test [1], 0.67 µM in test [2] and 30.9 µM in test [3].

Consider `CC/C(=C\c1ccc(O)c(O)c1)C(=O)N[C@@H](Cc1ccccc1)C(=O)C(=O)NCc1ccccc1` (stereo in doubt), for which the concentration for half-maximal inhibition (IC50) is 6.09 µM in the test on Liver, 45.5 µM in test [1], 0.61 µM in test [2] and 15.5 µM in test [3].

In the case of `CCCC/C(=C\c1ccc(O)c(O)c1)C(=O)N[C@@H](Cc1ccccc1)C(=O)C(=O)NCCc1ccc(OC)cc1` (stereo in doubt), the IC50 in the test on Liver came to 5.88 µM; in test [1], 38.9 µM; in test [2], 0.5 µM; in test [3] it was 41.4 µM.

As for `CCCC/C(=C\c1ccc(OC)c(OC)c1)C(=O)N[C@@H](Cc1ccccc1)C(=O)C(=O)NCCc1ccc(OC)cc1` (stereo in doubt), the IC50 in the test with Liver is above 100 µM; in test [1], above 100 µM; in test [2] it was 1.38 µM; in test [3] it was above 100 µM.

As to `CC/C(=C\c1ccc(O)c(O)c1)C(=O)N[C@@H](Cc1ccccc1)C(=O)C(=O)NCCc1ccc(OC)cc1` (stereo in doubt), the IC50 in the test on Liver turned out to be 6.4 µM; in test [1], 46.1 µM; in test [2] it was 0.46 µM; in test [3], 29.2 µM.
